Where “and” joins values, the source holds several entries; their conditions need not be identical. Equal entries are not always repeated.
Assays:
[1] = test system: NQO1 activation in BEAS-2B cells; test: BEAS-2B cellular MTT assay of NQO1 activation, 0% HSA; type: cell-based
Method: (§1) The growth rate of the BEAS-2B cells changed based on the lot of BEGM SingleQuots in the BEGM media. The cell growth rate was determined for each lot of SingleQuots. Ideally, cells were thawed into media with the new lot of SingleQuots and grown for two passages before testing; however, growing an active culture in the new lot of media for two to three passages before testing was also acceptable. Until the cell growth rate was determined, cells were seeded at different densities (cells/cm^2) in multiple tissue culture flasks in order to avoid the cells becoming more than 70% confluent. Cells should not go above 70% confluent as the cells differentiate when they become confluent. After the cells were grown in the new lot of media as described above, the number of cells per well needed to seed in the collagen plates was determined by seeding different numbers of cells per well and incubating for 48 hours. Cell confluency was checked after 48 hours and a cell number that results in just below to just above confluency was chosen for future plate seeding. Cell confluency in the assay plate was 95-100% confluent after 48 hours.
(§2) Cell media consists of BEBM basal media with the BEGM SingleQuots added. SingleQuots vials were thawed in the tissue culture hood, and GA-1000 (Gentamicin-Amphotericin) was not added.
(§3) If complete media was to be used immediately, BEBM basal media was warmed to room temperature in the hood, but not as high as 37° C. When the media was made for future use, SingleQuots were added to cold BEBM. One at a time, the SingleQuots components (except GA-1000) were added to the BEBM media. After removal of each component from the vial, the vial was rinsed with 0.5-1 mL of BEBM (depending on the volume the vial could hold) and added to the bottle of BEBM. Once all components were added, the label that comes with the SingleQuots kit was put on the bottle of media and the date was recorded. The bottle of media was mixed by gentle shaking. The media was not filtered. This media was stored at 4° C., with any leftover media disposed of one month after the date the SingleQuots were added.
(§4) BEAS-2B Cell Splitting Protocol:
(§5) First, Trypsin was warmed to 37° C. in the water bath. The media was then warmed to room temperature by letting it sit in the tissue culture hood, but not as high as 37° C. The media was aspirated from flask(s) and the flask(s) were washed with PBS. From 1 to 1.5 mL of warm trypsin were added to each flask and incubated at 37° C. until cells came off the flask on their own (~8-10 minutes), with no vigorous tapping on the flask to detach the cells.
(§6) Media was added to each flask to a total volume of 8-10 mL per flask and transferred to 15 mL conical tube(s). The cells were spun down at 120 g for 5 minutes, level 5 brake. The cells can be spun down between 100 and 150 g. Next the media was aspirated and the cell pellet was resuspended in fresh media by pipetting up and down and flicking the tube side to side. Any clumps of cells that remained were allowed to settle to the bottom of the tube before the top suspension was transferred into another tube, leaving about 1 mL of media in the original tube. The 1 mL of media and cell clumps were mixed with a single channel p1000 pipette, and any remaining clumps were removed before adding the cells in suspension to the other tube. The suspension was mixed with a pipette, an aliquot was removed, and the cells were counted. The amount of cells/cm^2 desired was calculated and the required volume of cells was added to tissue culture flasks. For example, use of SingleQuots with ~6000 cells/cm^2 was appropriate for a three day incubation and ~3000 cells/cm^2 for a five day incubation. Optimal cell density differed depending on lot of SingleQuots. The flasks were incubated at 37° C. in 5% CO2.
(§7) Day One: Seeding BEAS-2B Cells in Collagen Plates:
(§8) Plate(s) were either seeded with 0.3% or 0% HSA. While the protocol was similar for both conditions any differences are noted herein below. […]

[2] = target: HIS-Keap1 full length / Biotin-Nrf2 (16-mer) (Homo sapiens, UniProt Q14145); test: biochemical
Chain of HIS-Keap1 full length / Biotin-Nrf2 (16-mer) (Q14145 whole entry): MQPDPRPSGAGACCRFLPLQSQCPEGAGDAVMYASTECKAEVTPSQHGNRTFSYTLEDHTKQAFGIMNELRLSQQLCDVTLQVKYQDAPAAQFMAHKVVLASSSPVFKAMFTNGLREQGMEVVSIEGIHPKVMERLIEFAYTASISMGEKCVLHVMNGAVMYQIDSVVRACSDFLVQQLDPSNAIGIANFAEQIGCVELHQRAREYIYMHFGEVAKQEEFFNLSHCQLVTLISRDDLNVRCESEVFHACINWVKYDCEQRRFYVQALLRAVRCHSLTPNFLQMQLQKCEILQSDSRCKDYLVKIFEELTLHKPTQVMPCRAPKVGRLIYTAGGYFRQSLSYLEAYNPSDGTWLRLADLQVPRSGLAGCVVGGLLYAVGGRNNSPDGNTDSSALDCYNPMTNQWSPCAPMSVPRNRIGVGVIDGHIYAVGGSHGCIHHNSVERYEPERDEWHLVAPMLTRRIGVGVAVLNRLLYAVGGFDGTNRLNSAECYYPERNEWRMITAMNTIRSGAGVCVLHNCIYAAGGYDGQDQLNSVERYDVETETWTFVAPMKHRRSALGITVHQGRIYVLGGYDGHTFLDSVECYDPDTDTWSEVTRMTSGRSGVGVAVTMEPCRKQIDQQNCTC

[3] = test system: NQO1 activation in BEAS-2B cells; test: BEAS-2B cellular MTT assay of NQO1 activation, 0.3% HSA; type: cell-based
Method: as §1, §2, §3, §4, §5, §6, §7, §8

[4] = Homo sapiens, serum free, read-out: BEAS EC50 (nM) serum free
[5] = serum free, read-out: BEAS EC50 (nM) serum free
[6] = Homo sapiens, BEAS+, read-out: BEAS+ EC50
[7] = BEAS+ W, read-out: BEAS+ W EC50
[8] = Homo sapiens, BEAS+ W, read-out: BEAS+ W EC50
[9] = Homo sapiens, Serum Free W, read-out: BEAS EC50 (nM) Serum Free W
[10] = Serum Free W, read-out: BEAS EC50 (nM) Serum Free W

Row | Structure (SMILES) | EC50 [1, 4] [nM] | IC50 [2] | also measured
1 | O=C(O)CC1c2ccc3c(c2)CN(CC3)C(=O)c2ccc(cc2F)OCCCCCCn2nnc3c(Cl)c1ccc32 (centres unmarked) [Compound 250] | 16.4 | 2 nM and 1.9 nM | EC50 [1, 5]: 16.5 nM
2 | Cc1c2ccc3c1nnn3CCCCCC(F)(F)Oc1ccc(cc1)C(=O)N1CCc3ccc(cc3C1)C2CC(=O)O (centres unmarked) [Compound 311] | 10.4 | 0.1 nM and < 0.1 nM | 
3 | O=C(O)CC1c2ccc3c(c2)CN(CC3)C(=O)c2ccc(cn2)OCCCCCCn2nnc3cc1ccc32 (centres unmarked) [Compound 328] | 6710 | 0.9 nM and < 0.1 nM | 
4 | O=C(O)CC1c2cnc(nc2)OCCCCc2ccc(cc2Cl)C(=O)N2CCc3ccc1cc3C2 (centres unmarked) [Compound 221] |  | 216 nM | EC50 [3, 6]: > 10000 nM
5 | O=C(O)CC1c2ccc(nc2)OCCCCCc2ccc(nc2)C(=O)N2CCc3ccc1cc3C2 (centres unmarked) [Compound 193] | 1140 | 29.1 nM and 31.5 nM | EC50 [1, 5]: 768 nM
6 | Cc1c2ccc3c1nnn3CCCOCCOc1cc(F)c(c(F)c1)C(=O)N1CCc3ccc(cc3C1)C2CC(=O)O (centres unmarked) [Compound 368, 2-(20,32-difluoro-34-methyl-22-oxo-14,17-dioxa-8,9,10,23-tetrazahexacyclo[21.5.3.218,21.13,7.06,10.026,30]tetratriaconta-1(29),3(34),4,6,8,18(33),19,21(32),26(30),27-decaen-2-yl)acetic Acid] |  | 0.1 nM and 0.2 nM | EC50 ([3]; BEAS+, read-out: BEAS+ EC50): 140 nM; EC50 [3, 6]: 114 nM
7 | Cc1c2ccc3c1nnn3CCCCCc1ccc(cc1)C(=O)N1CCc3ccc(cc3C1)[C@H]2[C@@H](C)C(=O)O [Compound 130] |  | 0.6 nM and 0.4 nM | EC50 [3, 7]: 0.5 nM and 0.7 nM; EC50 [3, 8]: < 0.5 nM
8 | Cc1c2ccc(c1C)C(=O)N1CCc3ccc(cc3C1)C(CC(=O)O)c1ccc3c(nnn3CCCCCCO2)c1C (centres unmarked) [Compound 309] | 3.2 | < 0.1 nM | 
9 | Cc1c2oc3cc(ccc13)OCCCCCn1nnc3c(C)c(ccc31)C(CC(=O)O)c1ccc3c(c1)CN(CC3)C2=O (centres unmarked) [Compound 401] |  | 6.1 nM and 6.5 nM | EC50 [3, 6]: 7110 nM
10 | Cc1c2ccc3c1nnn3CCOCCCc1ccc(c(F)c1)C(=O)N1CCc3ccc(cc3C1)[C@H]2CC(=O)O [Compound 363] |  | 9 nM and 8.5 nM | EC50 [3, 7]: 711 nM; EC50 [3, 8]: 682 nM
11 | Cc1c2cnc3c1nnn3CCCCCCc1ccc(cc1)C(=O)N1CCc3ccc(cc3C1)[C@@H]2CC(=O)O [Compound 138] | 0.5 | 0.1 nM | EC50 [1, 5]: 0.3 nM
12 | Cc1cc2ccc1C(=O)N1CCc3ccc(cc3C1)C(CC(=O)O)c1ccc3c(nnn3CCCOCCO2)c1C (centres unmarked) [Compound 374] |  | 1 nM | EC50 [3, 7]: 297 nM; EC50 [3, 8]: 284 nM
13 | O=C(O)CC1c2ccc3c(c2)CN(CC3)C(=O)c2ccc(cc2C(F)(F)F)OCCCCCCn2nnc3cc1ccc32 (centres unmarked) [Compound 308] | 910 | < 0.1 nM | 
14 | COc1cc2ccc1C(=O)N1CCc3ccc(cc3C1)[C@@H](CC(=O)O)c1cnc3c(nnn3CCCCCC2)c1C [Compound 91] |  | 1.9 nM | EC50 [3, 7]: 155 nM; EC50 [3, 8]: 131 nM
15 | COc1cc2ccc1CCCCCn1nnc3c(C)c(ccc31)C(CC(=O)O)c1ccc3c(c1)CN(CC3)C2=O (centres unmarked) [Compound 190] |  | 4.2 nM and 4.4 nM and 1.1 nM (2×) | EC50 [1, 5]: 1 nM
16 | COc1cc2ccc1C(=O)N1CCc3ccc(cc3C1)C(CC(=O)O)c1cnc3c(nnn3CCCCC2)c1C (centres unmarked) [Compound 144] |  | 0.7 nM and 0.6 nM | EC50 [3, 7]: 60.2 nM; EC50 [3, 8]: 32.4 nM
17 | Cc1c2ccc3c1ncn3CCCCCCc1ccc(cc1)C(=O)N1CCc3ccc(cc3C1)[C@H]2CC(=O)O (single isomer, unassigned) [Compound 385] | 2250 | 238 nM and 244 nM | EC50 [1, 5]: 2850 nM
18 | Cn1c2cc3cc(cnc31)CCCCCCn1nnc3c(Cl)c(ccc31)C(CC(=O)O)c1ccc3c(c1)CN(CC3)C2=O (centres unmarked) [Compound 199] | 12.7 | 3.7 nM and 3.6 nM | EC50 [1, 5]: 11.9 nM
19 | Cc1cc2ccc1C(=O)N1CCc3ccc(cc3C1)[C@H](CC(=O)O)c1ccc3c(c1)nnn3CCCCCCO2 [Compound 326] |  | 2.7 nM and 0.8 nM | EC50 [3, 6]: 804 nM

Row | Structure (SMILES) | EC50 [1, 4] [nM] | IC50 [2] | also measured
20 | Cc1c2ccc3c1nnn3C/C=C/CCCc1ccc(c(F)c1)C(=O)N1CCc3ccc(cc3C1)C2C(C)C(=O)O (centres unmarked) [Compound 375] |  | 1.4 nM | EC50 [1, 9]: 2.9 nM
21 | Cc1c2ccc3c1nnn3CCCCc1ccc3ccc(cc3c1)C(=O)N1CCc3ccc(cc3C1)C2CC(=O)O (centres unmarked) [Compound 390] |  | 5.1 nM and 5.6 nM | EC50 ([3]; BEAS+, read-out: BEAS+ EC50): 5770 nM; EC50 [3, 6]: 3350 nM
22 | Cc1c2ccc3c1nnn3CCCCCCCc1ccc(cc1)C(=O)N1CCc3ccc(cc3C1)C2CC(=O)O (centres unmarked) [Compound 313] | 8.8 | < 0.1 nM and 0.4 nM | 
23 | Cc1c2cnc3c1nnn3CCCCCCc1ccc(c(F)c1)C(=O)N1CCc3ccc(cc3C1)C2CC(=O)O (centres unmarked) [Compound 146] | 0.2 | 0.1 nM | 
24 | Cc1c2ccc3c1nnn3CCCCCCc1ccc(c(F)c1)C(=O)N1CCc3ccc(cc3C1)[C@@H]2[C@H](C)C(=O)O [Compound 142] |  | 11.3 nM and 11.6 nM | EC50 [1, 9]: 34.5 nM; EC50 [1, 10]: 36.1 nM
25 | Cc1c2ccc3c1nnn3CCCCCc1cnc(nc1)C(=O)N1CCc3ccc(cc3C1)C2CC(=O)O (centres unmarked) [Compound 204] | 2880 | 3 nM and 2.7 nM | EC50 [1, 5]: 3290 nM
26 | Cc1cc2cnc1OCCCCCc1ccc(cc1)C(=O)N1CCc3ccc(cc3C1)[C@H]2[C@@H](C)C(=O)O [Compound 76] |  | > 9900 nM | EC50 [3, 8]: > 10000 nM
27 | Cc1c2ccc3c1nnn3CCC/C=C/COc1cnc(nc1)C(=O)N1CCc3ccc(cc3C1)C2CC(=O)O (centres unmarked) [Compound 400] |  | 2 nM | EC50 ([3]; BEAS+, read-out: BEAS+ EC50): 29.3 nM; EC50 [3, 6]: 31.6 nM
28 | O=C(O)CC1c2cnc(nc2)OCCCCCc2ccc(c(Cl)c2)C(=O)N2CCc3ccc1cc3C2 (centres unmarked) [Compound 229] | 1430 | 10.4 nM | EC50 [1, 5]: 2230 nM
29 | Cc1c2oc3cc(ccc13)OCCCCCCn1nnc3c(C)c(ccc31)C(CC(=O)O)c1ccc3c(c1)CN(CC3)C2=O (centres unmarked) [Compound 402] |  | 58.7 nM and 57.7 nM | EC50 [3, 6]: > 10000 nM
30 | COC(=O)CC1c2ccc3c(c2)CN(CC3)C(=O)c2ccc(cc2C)OCCCCCn2nnc3cc1ccc32 (centres unmarked) [Compound 333] |  | 1820 nM and > 1000 nM and 1220 nM | EC50 [3, 6]: > 10000 nM
31 | O=C(O)CC1c2ccc3c(c2)CN(CC3)C(=O)c2ccc(cc2F)CCCCCCn2nnc3c(Cl)c1ccc32 (centres unmarked) [Compound 148] |  | 0.3 nM and 0.4 nM and 0.8 nM and 0.7 nM | EC50 ([3]; BEAS+, read-out: BEAS+ EC50): 0.3 nM
32 | COc1cc2ccc1C(=O)N1CCc3ccc(cc3C1)C(CC(=O)O)c1cnc3c(nnn3CCCCCC2)c1C (centres unmarked) [Compound 103] |  | 1.2 nM | EC50 [1, 9]: 22.1 nM; EC50 [1, 10]: 36.8 nM
33 | Cc1cc2cnc1OCC/C=C/Cc1ccc(cc1)C(=O)N1CCc3ccc(cc3C1)[C@@H]2[C@H](C)C(=O)O [Compound 74] |  | 24.4 nM and 36.4 nM | EC50 [1, 9]: 4.7 nM; EC50 [1, 10]: 7.1 nM
34 | Cc1c2ccc(c1C)C(=O)N1CCc3ccc(cc3C1)C(CC(=O)O)c1ccc3c(c1)nnn3CCCCCCO2 (centres unmarked) [Compound 312] | 40.7 | < 0.1 nM | 
35 | Cc1cc2ncc1[C@@H]([C@@H](C)C(=O)O)c1ccc3c(c1)CN(CC3)C(=O)c1ccc(cc1)C/C=C/CCO2 [Compound 61] |  | 720 nM and 651 nM | EC50 [1, 9]: 422 nM; EC50 [1, 10]: 245 nM
36 | O=C(O)CC1c2cnc(nc2)OCCCCCc2cc(F)c(c(F)c2)C(=O)N2CCc3ccc1cc3C2 (centres unmarked) [Compound 246] |  | 5.3 nM | EC50 ([3]; BEAS+, read-out: BEAS+ EC50): 1490 nM; EC50 [3, 6]: 992 nM
37 | C[C@H](C(=O)O)[C@H]1c2ccc(nc2)OCCCCCc2ccc(cc2)C(=O)N2CCc3ccc1cc3C2 [Compound 60] |  | 580 nM and 614 nM | EC50 [1, 9]: 333 nM; EC50 [1, 10]: 258 nM and 226 nM
